Assay [1] concerns normal rats and spontaneously hypertensive rats (SHR). The following applies: intravenous acute administration, transient; cited from earlier work.
In assay [2] the test system is mice in which chronic rheumatoid arthritis was induced. The note with it: oral administration, mice with induced chronic rheumatoid arthritis; cited from earlier work.
For assay [3], the system named is normal human umbilical vein endothelial cells (HUVEC). The assay is described as follows: Nitrite (NO2) concentration in HUVEC culture supernatant by HPLC (NO production). In kind it is cell-based. The following applies: 48-hour culture. As to the method:
A normal human umbilical vein endothelial cells (HUVEC) line available from Clonetics (SanDiego, Calif., USA) was used with EGM-2 Bullet Kit medium containing 2% FBS (Takara Bio Inc.). The cells were cultured at 37° C. in a 5% CO2 incubator, and used for experiments after 4 to 6 passages. Citrulline and serine, which were manufactured by Kyowa Hakko Bio, were used.
A cell suspension (0.45 mL) with the adjusted initial cell density to 1×10^5 cells/mL was inoculated in a 24-well plate (IWAKI). After 24-hour culture, the medium was replaced with a medium containing L-citrulline (final concentration 0.3 mM: low-dose citrulline group, or final concentration 3 mM: high-dose citrulline group), L-serine (final concentration 0.3 mM: serine group), or a mixture thereof (citrulline final concentration 0.3 mM and serine final concentration 0.3 mM: low-dose citrulline+serine group, or citrulline final concentration 3 mM and serine final concentration 0.3 mM: high-dose citrulline+serine group). In a control group, a medium to which only a solvent (PBS) was added was used. After 48-hour culture, the culture broth ([…]) was centrifuged at 12,000 rpm for 10 minutes, and the concentration of nitrite (NO2), which is a stable NO metabolite, in the culture supernatant was determined by HPLC (ENO-20, EICOM).

Each structure is given as a SMILES string.

On to `N[C@@H](CO)C(=O)O` [serine, L-serine], for which, in assay [1], the Average blood pressure entry is given as “decreased” and the Peripheral vascular resistance result is listed as “decreased in a transient manner”. In addition, in assay [2], the Arthritis score entry is “ameliorating the arthritis score”.
As to `NC(=O)NCCC[C@H](N)C(=O)O` [citrulline, L-citrulline], the “Effect on NO production alone” value in assay [3] (citrulline 0.3 mM alone (low-dose citrulline group)) was “does not affect NO production alone”; in assay [3] (citrulline 3 mM alone (high-dose citrulline group)), “NO production was enhanced”.

Source of the values: patent US9833426B2, “Agent for preventing deterioration in vascular endothelial function or improving vascular endothelial function” (KYOWA HAKKO BIO CO., LTD., priority 2012, dated 2017).
